Assay results from US5344922A, “4-hydroxyquinaldic acid derivatives” (priority 1992, dated 1994).
Where “and” joins values, the source holds several entries; their conditions need not be identical. Equal entries are not always repeated. Where two headings read alike, the source gives them in different places.

Experiments:
NMDA recognition site = assay: NMDA-specific 3H-L-glutamate binding assay in cortical membranes; design: species or system rat
Method: ^3 H-Glycine (^3 H-GLY), ^3 H-TCP and NMDA specific ^3 H-GLU binding assays were performed in a buffy coat rat cortical membrane preparation (Jones et al., 1989). The tissue was homogenized in a glass grinding vessel with a teflon pestle in ice-cold 0.32 M sucrose and centrifuged for 10 min at 1000×g. The resultant supernatant was decanted and recentrifuged at 20,000×g for 20 min. The pellet was resuspended in 20 volumes of ice-cold dH20 and centrifuged for 20 min at 8000×g. The supernatant and the buffy coat were then re-collected and recentrifuged at 48,000×g for 20 min. The pellet was resuspended in 20 volumes of ice-cold water and centrifuged for 20 min at 48,000×g, after which it was stored at -20° C. for not more than two weeks. On the day of the assay, the pellet was thawed, resuspended in 40 volumes of buffer, incubated at 37° C. for 20 min in the appropriate buffer, and centrifuged for 10 min at 48,000×g. […] Protein concentrations were determined by the method described by Smith (1985). […]
For equilibrium saturation experiments, different concentrations of ^3 H-glutamate (diluted with unlabeled L-glutamate) ranging from 10 to 320 nM in the presence or absence of test drug(s) were examined. Non-specific binding was defined as that remaining in the presence of 300 μM NMDA and was determined at the lowest and the highest concentration of ^3 H-L-glutamate. […]

NMDA receptor = assay: Photolabeling of cortical membranes followed by SDS polyacrylamide gel electrophoresis; assay type: binding, rat; conditions: cortical membranes photolabeled, 366 nm; bands Rf 0.71 and 0.53
Method: E. Photolabeling with 7-chloro-4-hydroxy-2-quinoline carbonyl azide
(§1) Thus, in all experiments, 7-chloro-4-hydroxy-2-quinoline carbonyl azide was first dissolved at high concentrations (1-10 mM) in dimethylsulfoxide (DMSO) and then diluted in the appropriate physiological buffer. […] The appropriate DMSO control was performed at the same time, and no changes in the binding of radioligands were ever observed. This procedure, and all subsequent procedures where non-photolyzed material was desired, were performed under red light.
Previously washed rat cortical membranes were resuspended at approximately 0.1 mg protein/ml in the appropriate buffer (pH 7.4 at 23° C.), and 30 ml were placed in each of 3 or 4 150×25 mm polystyrene culture dishes on a rotating shaker. A 200 μL aliquot of a 10 mM solution of 7-chloro-4-hydroxy-2-quinoline carbonyl azide dissolved in DMSO was added and the solution was mixed for 10 min in the dark. […]
Cortical membranes were photolabeled with 7-chloro-4-hydroxy-2-quinoline as described in Example II, section E. Protein concentration of this preparation was determined using the BCA protein assay kit (Pierce, Rockford, Ill.). […]
Gels were removed and fluorescent bands visualized and recorded using a transilluminator (Fotodyne, New Berlin, Wis.) fitted with four 366nm UV bulbs (15 watts). […]

Solubility = assay type: physicochemical
Method: as §1

[1] = biological target: T1, strychnine-insensitive glycine site associated with the NMDA receptor/channel complex (Rattus norvegicus, UniProt P35439); assay: 3H-glycine binding assay in cortical membranes; conditions: for Hill slope (nH), displacement of 3H-glycine binding: mean ± S.E.M.
T1 construct: buffy coat rat cortical membrane preparation; from tissue; host or cells: rat cerebral cortex, buffy coat membranes
Method: (§2) ^3 H-Glycine (^3 H-GLY), ^3 H-TCP and NMDA specific ^3 H-GLU binding assays were performed in a buffy coat rat cortical membrane preparation (Jones et al., 1989). The tissue was homogenized in a glass grinding vessel with a teflon pestle in ice-cold 0.32 M sucrose and centrifuged for 10 min at 1000×g. The resultant supernatant was decanted and recentrifuged at 20,000×g for 20 min. The pellet was resuspended in 20 volumes of ice-cold dH20 and centrifuged for 20 min at 8000×g. The supernatant and the buffy coat were then re-collected and recentrifuged at 48,000×g for 20 min. The pellet was resuspended in 20 volumes of ice-cold water and centrifuged for 20 min at 48,000×g, after which it was stored at -20° C. for not more than two weeks. On the day of the assay, the pellet was thawed, resuspended in 40 volumes of buffer, incubated at 37° C. for 20 min in the appropriate buffer, and centrifuged for 10 min at 48,000×g. The pellet was then resuspended in 40 volumes of buffer and recentrifuged at 48,000×g for 10 min. This step was repeated twice before the pellet finally resuspended in a buffer suitable for the particular binding assay. Protein concentrations were determined by the method described by Smith (1985).
C. ^3 H-Glycine Binding Assay
^3 H-glycine binding assays were initiated by addition of 100 μl aliquots of membrane homogenate (100-150 μg protein) to test tubes containing 20 nM ^3 H-glycine in the presence or absence of the test drug(s) dissolved in 50 mM Tris acetate or 50 mM Na-free HEPES buffer pH 7.5 for a final volume of 1 ml, followed by incubation for 30 min at 4° C. […] The filtration procedure and scintillation counting were performed as described above.
(§3) The Hill slopes (nH) and maximal displacement of radioligand binding were estimated by non-linear curve-fitting to a sigmoidal algorithm using the EBDA portion of the LIGAND data analysis software package for the IBM-PC (Elsevier). K1 values were obtained from the LIGAND analysis of the same data. KD and Bmax estimates were obtained by non-linear curve-fitting of the saturation isotherm using programs from the same software package (Munson and Rodbard, 1980). All data analysis was performed on each of 3-7 individual experiments performed in triplicate (7 concentrations) or duplicate (10 concentrations). Reported values are the mean ±S.E.M. of these analyses. For displacement experiments, these values were plotted with the sigmoid curve taken as the average of the sigmoidal fits of each individual experiment.

[2] = biological target: T2, NMDA receptor/channel complex (Rattus norvegicus, UniProt P35439); assay: biochemical; assay type: biochemical
T2 construct: buffy coat rat cortical membrane preparation; from tissue; host or cells: rat cerebral cortex, buffy coat membranes
Method: as §2, with “The” for “^3 H-Glycine (^3 H-GLY), ^3 H-TCP and NMDA specific ^3 H-GLU binding assays were performed in a buffy coat rat cortical membrane preparation (Jones et al., 1989). The”
D. ^3 H-TCP Binding Assay
The dissociative anesthetics ketamine and phencyclidine (PCP) selectively antagonize depolarizations produced by NMDA.
^3 H-TCP binding assays were initiated by addition of 100 μl aliquots of membrane homogenate (approximately 150 μg protein) to test tubes containing 5 nM ^3 H-TCP in the presence or absence of the test drug(s) dissolved in 10 mM HEPES buffer pH 7.5. The final volume in each tube was 1 ml, and tubes were incubated for 2 hr at 23° C. Non-specific binding was defined as that remaining in the presence of 30 μM PCP. The filtration procedure was used as described above except that the filters were presoaked for one hour in 0.03% polyethyleneimine (PEI) (Sigma) to reduce filter binding. Scintillation counting was performed as described above.
Previously washed rat cortical membranes were resuspended at approximately 0.1 mg protein/ml in the appropriate buffer (pH 7.4 at 23° C.), and 30 ml were placed in each of 3 or 4 150×25 mm polystyrene culture dishes on a rotating shaker. A 200 μL aliquot of a 10 mM solution of 7-chloro-4-hydroxy-2-quinoline carbonyl azide dissolved in DMSO was added and the solution was mixed for 10 min in the dark. Photolysis was accomplished by exposure of the reaction mixture to 366 nm long-wave ultraviolet light (Transilluminator, Fotodyne, Model 3-3000) at a distance of 5 cm for 10 min with continuous mixing.
as §3

glycine modulatory site = conditions: Kemp et al., 1988; cited from earlier work
[3] = test system: NMDA-mediated neuronal response; conditions: glycine-reversible; Fletcher and Lodge, 1988; cited from earlier work
[4] = biological target: T1, strychnine-insensitive glycine site associated with the NMDA receptor/channel complex; conditions: read-out: K1 at the glycine site (reported); Fletcher and Lodge, 1988; cited from earlier work
[5] = tissue treated with 7-chloro-4-hydroxyquinaldic acid and exposed to UV light

SMILES: [N-]=[N+]=NC(=O)c1cc(O)c2ccc(Cl)cc2n1 [7-chloro-4-hydroxy-2-quinoline carbonyl azide]
- Ki (NMDA recognition site; n=5, mean ± S.E.M., read-out: K1 for the NMDA site): 101 ± 12 µM
- displacement of NMDA-specific 3H-L-glutamate binding (NMDA recognition site; rat cortical membranes, FIG. 2B): less than 10%
- fluorescent bands on SDS polyacrylamide gel after photolabeling (NMDA receptor): two distinct fluorescent bands
- solubility in polar solutions (Solubility): limited solubility
- Ki [1]: 2.4 ± 0.2 µM
- decrease in the apparent affinity for the 3H-glycine binding site on introduction of an azido group ([1]; azide relative to 7-chloro-4-hydroxyquinaldic acid): 5 fold
- mode of displacement of 3H-glycine binding ([1]; rat cortical membranes, red light): apparently competitive
- Hill slope (nH), displacement of 3H-glycine binding ([1]; rat cortical membranes): 0.90±0.08
- selectivity for the 3H-glycine binding site ([1]; relative to the NMDA recognition site labeled by 3H-L-glutamate): selective affinity for the ^3 H-glycine binding site relative to the NMDA recognition site
- mode of inhibition of glycine action on 3H-TCP binding, non-photolyzed ([2]; non-photolyzed azide): competitive antagonism of the actions of glycine
- inhibition at 10 µM ([2]; read-out: decrease of 3H-TCP binding in the absence of added glycine): 70%
- mode of inhibition of glycine-enhanced 3H-TCP binding, UV irradiated ([2]; tissue UV irradiated in the presence of azide): distinctly non-competitive inhibition of glycine-enhanced ^3 H-TCP binding

SMILES: O=C(O)c1cc(O)c2ccc(Cl)cc2n1 [7-chloro-4-hydroxyquinaldic acid]
- activity at the glycine modulatory site (glycine modulatory site): selective antagonist of the glycine modulatory site
- Ki [1]: 0.49 ± 0.05 µM
- Hill slope (nH), displacement of 3H-glycine binding ([1]; rat cortical membranes): 0.74±0.03
- reduction of 3H-TCP binding in the absence of added glycine [2, 5]: 100%
- rightward parallel shift of the glycine concentration-response curve [2, 5]: 4 fold

SMILES: NC1CCN(O)C1=O (stereo not drawn) [HA-966, 1-hydroxy-3-aminopyrrolidone-2]
- effect on NMDA-mediated neuronal response [3]: reduce NMDA-mediated neuronal response in a glycine-reversible manner
- Ki [4]: ~5 µM

SMILES: NCC(=O)O [glycine]
- slope of glycine concentration-response, 3H-TCP binding [2]: 1.02 and 0.93 and 1.15
- Emax ([2]; read-out: maximal increase of 3H-TCP binding by glycine): 150%
